Assay results as given in patent US20230339939A1 (Bayer Aktiengesellschaft, priority 2020, published 2023).

Key:
CSNK1D = CSNK1D (Homo sapiens (Human), UniProt P48730); test: CSNK1D Assay (ADP-Glo, 1 μM ATP); type: biochemical; conditions: median, read-out: CSNK1D IC50 [mol/l] (median)
Protocol: CSNK1D-inhibitory activity of compounds of the present invention in presence of 1 μM adenosine-tri-phosphate (ATP) was quantified employing the CSNK1 D assay as described in the following paragraphs. In essence, the enzyme activity is measured by quantification of the adenosine-di-phosphate (ADP), which is generated as a co-product of the enzyme reaction, via the “ADP-Glo™ Kinase Assay” kit from the company Promega. This detection system works as follows: In a first step the ATP not consumed in the kinase reaction is quantitatively converted to cAMP employing an adenylate cyclase (“ADP-Glo-reagent”), then the adenylate cyclase is stopped and the ADP generated in the kinase reaction converted to ATP which generates in a luciferase-based reaction a glow-luminescence signal (“Kinase Detection Reagent”).
Recombinant fusion protein of N-terminal Glutathion-S-Transferase (GST) and full-length human CSNK1D, expressed by baculovirus infected insect cells and purified via Glutathion affinity chromatography, was purchased from Life Technologies (product no. PV3665) and used as enzyme. As substrate for the kinase reaction the biotinylated peptide Btn-Ahx-[…] (C-terminus in amide form) was used which can be purchased e.g. from the company Biosyntan (Berlin-Buch, Germany).
For the assay 50 nl of a 100 fold concentrated solution of the test compound in DMSO was pipetted into a white 1536-well microtiter plate (Greiner Bio-One, Frickenhausen, Germany), 2 μL of a solution of CSNK1D in aqueous assay buffer [50 mM HEPES pH 7.5, 10% (v/v) glycerol, 10 mM MgCl2, 50 mM NaCl, 1 mM dithiothreitol, 0.01% (w/v) bovine serum albumin, 0.01% (v/v) Triton X-100] were added and the mixture was incubated for 15 min at 22° C. to allow pre-binding of the test compounds to the enzyme before the start of the kinase reaction. […] The concentration of CSNK1D was adjusted depending of the activity of the enzyme lot and was chosen appropriate to have the assay in the linear range, a typical concentration is about 0.5 ng/μL. The reaction was stopped by the addition of 2.5 μL of “ADP-Glo-reagent” (1:1.5 fold diluted with water) and the resulting mixture was incubated at 22° C. for 1 h to convert the ATP not consumed in the kinase reaction completely […]. Subsequently 2.5 μL of the “kinase detection reagent” (1.2 fold more concentrated than recommended by the producer) were added, the resulting mixture was incubated at 22° C. for 1 h and then the luminescence measured with a suitable measurement instrument (e.g. Viewlux™ from Perkin-Elmer). The amount of emitted light was taken as a measure for the amount of ADP generated and thereby for the activity of the CSNK1D.

CSNK1A1 = CSNK1A1 (Homo sapiens (Human), UniProt P48729); test: CSNK1A1 Assay 2 (ADP-Glo, 1 μM ATP, substrate biotin-Ahx-KRRRAL-pS-VASLPGL); type: biochemical; conditions: median, read-out: CSNK1A1 Assay 2 IC50 [mol/l] (median)
Protocol: CSNK1A1-inhibitory activity of compounds of the present invention in presence of 1 μM adenosine-tri-phosphate (ATP) was quantified employing the CSNK1A1 assay as described in the following paragraphs. In essence, the enzyme activity is measured by quantification of the adenosine-di-phosphate (ADP), which is generated as a co-product of the enzyme reaction, via the “ADP-Glo™ Kinase Assay” kit from the company Promega. This detection system works as follows: In a first step the ATP not consumed in the kinase reaction is quantitatively converted to cAMP employing an adenylate cyclase (“ADP-Glo-reagent”), then the adenylate cyclase is stopped and the ADP generated in the kinase reaction converted to ATP which generates in a luciferase-based reaction a glow-luminescence signal (“Kinase Detection Reagent”).
Recombinant fusion protein of N-terminal Glutathion-S-Transferase (GST) and full-length human CSNK1A1, expressed by baculovirus infected insect cells and purified via Glutathion affinity chromatography, was purchased from Life Technologies (product no. PV4174) and used as enzyme. As substrate for the kinase reaction the biotinylated peptide biotin-Ahx-KRRRAL-pS-VASLPGL (C-terminus in amide form) was used which can be purchased e.g. from the company Biosyntan (Berlin-Buch, Germany).
For the assay 50 nl of a 100 fold concentrated solution of the test compound in DMSO was pipetted into a white 1536-well microtiter plate (Greiner Bio-One, Frickenhausen, Germany), 2 μL of a solution of CSNK1A1 in aqueous assay buffer [50 mM HEPES pH 7.5, 10% (v/v) glycerol, 10 mM MgCl2, 50 mM NaCl, 1 mM dithiothreitol, 0.01% (w/v) bovine serum albumin, 0.01% (v/v) Triton X-100] were added and the mixture was incubated for 15 min at 22° C. to allow pre-binding of the test compounds to the enzyme before the start of the kinase reaction. […] The concentration of CSNK1A1 was adjusted depending of the activity of the enzyme lot and was chosen appropriate to have the assay in the linear range, a typical concentrations are about 0.0375 ng/μL. The reaction was stopped by the addition of 2.5 μL of “ADP-Glo-reagent” (1:1.5 fold diluted with water) and the resulting mixture was incubated at 22° C. for 1 h to convert the ATP not consumed in the kinase reaction completely […]. Subsequently 2.5 μL of the “kinase detection reagent” (1.2 fold more concentrated than recommended by the producer) were added, the resulting mixture was incubated at 22° C. for 1 h and then the luminescence measured with a suitable measurement instrument (e.g. Viewlux™ from Perkin-Elmer). The amount of emitted light was taken as a measure for the amount of ADP generated and thereby for the activity of the CSNK1A1.

Chain of CSNK1A1 (P48729 whole entry): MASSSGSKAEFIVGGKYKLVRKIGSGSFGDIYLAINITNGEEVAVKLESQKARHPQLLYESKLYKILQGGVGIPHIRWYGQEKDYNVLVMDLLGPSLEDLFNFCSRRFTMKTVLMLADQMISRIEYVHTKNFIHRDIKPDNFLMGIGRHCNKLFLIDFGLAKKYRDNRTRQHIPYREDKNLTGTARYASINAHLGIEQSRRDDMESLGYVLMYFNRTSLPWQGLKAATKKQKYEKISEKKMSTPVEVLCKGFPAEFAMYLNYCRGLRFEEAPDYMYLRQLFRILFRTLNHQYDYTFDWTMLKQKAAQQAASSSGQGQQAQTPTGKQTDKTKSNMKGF
Chain of CSNK1D (P48730 whole entry): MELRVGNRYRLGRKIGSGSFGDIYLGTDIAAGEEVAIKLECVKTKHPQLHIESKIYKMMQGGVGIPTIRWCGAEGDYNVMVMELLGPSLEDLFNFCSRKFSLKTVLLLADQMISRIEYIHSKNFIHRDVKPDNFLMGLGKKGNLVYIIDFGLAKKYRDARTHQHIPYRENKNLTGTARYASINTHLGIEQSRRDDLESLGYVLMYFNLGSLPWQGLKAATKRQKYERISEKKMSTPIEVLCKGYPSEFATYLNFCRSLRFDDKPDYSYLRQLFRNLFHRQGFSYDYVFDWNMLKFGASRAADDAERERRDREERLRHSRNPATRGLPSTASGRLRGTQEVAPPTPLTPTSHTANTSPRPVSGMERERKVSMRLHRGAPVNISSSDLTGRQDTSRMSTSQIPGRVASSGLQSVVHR

SMILES | IC50 (CSNK1D) [nM] | IC50 (CSNK1A1) [nM]
O=C(Cc1ccc(F)cc1)Nc1cc(-c2[nH]c3cccnc3c2-c2ccccn2)ccn1 [Example 5, 2-(4-fluorophenyl)-N-{4-[3-(pyridin-2-yl)-1H-pyrrolo[3,2-b]pyridin-2-yl]pyridin-2-yl}acetamide] | 2.68 | 1.06
CC(C(=O)Nc1cc(-c2[nH]c3cc(Cl)cnc3c2-c2ccccn2)ccn1)c1ccc(F)cc1 (centres unmarked) [Example 52, N-{4-[6-chloro-3-(pyridin-2-yl)-1H-pyrrolo[3,2-b]pyridin-2-yl]pyridin-2-yl}-2-(4-fluorophenyl)propanamide] | 20.5 | 6.26
O=C(Cc1ccc(F)cc1)Nc1cc(-c2[nH]c3c(N4CCCC4=O)ccnc3c2-c2ccccn2)ccn1 [Example 40, 2-(4-fluorophenyl)-N-{4-[7-(2-oxopyrrolidin-1-yl)-3-(pyridin-2-yl)-1H-pyrrolo[3,2-b]pyridin-2-yl]pyridin-2-yl}acetamide] | 10.3 | 6.26
CC(C)C(C(=O)Nc1cc(-c2[nH]c3ccc(F)nc3c2-c2ccccn2)ccn1)c1ccc(F)cc1 (single isomer, unassigned; (+)) [Example 26, (+)-2-(4-fluorophenyl)-N-{4-[5-fluoro-3-(pyridin-2-yl)-1H-pyrrolo[3,2-b]pyridin-2-yl]pyridin-2-yl}-3-methylbutanamide] | 7.62 | 3.5
CC(C)C(C(=O)Nc1cc(-c2[nH]c3ccc(F)nc3c2-c2ccccn2)ccn1)c1ccc(F)cc1 (single isomer, unassigned; (-)) [Example 25, (−)-2-(4-fluorophenyl)-N-{4-[5-fluoro-3-(pyridin-2-yl)-1H-pyrrolo[3,2-b]pyridin-2-yl]pyridin-2-yl}-3-methylbutanamide] | 56.3 | 23.9
COCCc1ccnc2c(-c3ccccn3)c(-c3ccnc(NC(=O)Cc4ccc(F)cc4)c3)[nH]c12 [Example 36, 2-(4-fluorophenyl)-N-{4-[7-(2-methoxyethyl)-3-(pyridin-2-yl)-1H-pyrrolo[3,2-b]pyridin-2-yl]pyridin-2-yl}acetamide] | 14.8 | 14.8
O=C(Cc1ccc(F)cc1)Nc1cc(-c2[nH]c3cccnc3c2-c2ccccc2)ccn1 [Example 14, 2-(4-fluorophenyl)-N-[4-(3-phenyl-1H-pyrrolo[3,2-b]pyridin-2-yl)pyridin-2-yl]acetamide] | 2.64 | 1.04
O=C(Cc1ccc(F)cc1)Nc1cc(-c2[nH]c3c(Cl)ccnc3c2-c2ccccn2)ccn1 [Example 22, N-{4-[7-chloro-3-(pyridin-2-yl)-1H-pyrrolo[3,2-b]pyridin-2-yl]pyridin-2-yl}-2-(4-fluorophenyl)acetamide] | 5.84 | 1.6
CC(C(=O)Nc1cc(-c2[nH]c3cccnc3c2-c2ccccc2)ccn1)c1ccc(F)cc1 (racemic) [Example 11, 2-(4-fluorophenyl)-N-[4-(3-phenyl-1H-pyrrolo[3,2-b]pyridin-2-yl)pyridin-2-yl]propanamide] | 7.02 | 6.11
CC(C(=O)Nc1cc(-c2[nH]c3cccnc3c2-c2ccccn2)ccn1)c1ccc(F)cc1 (racemic) [Example 6, 2-(4-fluorophenyl)-N-{4-[3-(pyridin-2-yl)-1H-pyrrolo[3,2-b]pyridin-2-yl]pyridin-2-yl}propanamide] | 3.37 | 1.73
COCC(C(=O)Nc1cc(-c2[nH]c3cc(F)cnc3c2-c2ccccn2)ccn1)c1ccc(F)cc1 (racemic) [Example 45, (2RS)-2-(4-fluorophenyl)-N-[4-[6-fluoro-3-(2-pyridyl)-1H-pyrrolo[3,2-b]pyridin-2-yl]-2-pyridyl]-3-methoxy-propanamide] | 12 | 4.83
COc1ccc2[nH]c(-c3ccnc(NC(=O)Cc4ccc(F)cc4)c3)c(-c3ccccn3)c2n1 [Example 32, 2-(4-fluorophenyl)-N-{4-[5-methoxy-3-(pyridin-2-yl)-1H-pyrrolo[3,2-b]pyridin-2-yl]pyridin-2-yl}acetamide] | 7.52 | 2.5
CC(C(=O)Nc1cc(-c2[nH]c3ccc(F)nc3c2-c2ccccn2)ccn1)c1ccc(F)cc1 (racemic) [Example 1, 2-(4-fluorophenyl)-N-{4-[5-fluoro-3-(pyridin-2-yl)-1H-pyrrolo[3,2-b]pyridin-2-yl]pyridin-2-yl}propanamide] | 4.58 | 1.66
CC(C(=O)Nc1cc(-c2[nH]c3cccnc3c2-c2ccccn2)ccn1)c1ccc(F)cc1 (single isomer, unassigned; (-)) [Example 8, (−)-2-(4-fluorophenyl)-N-{4-[3-(pyridin-2-yl)-1H-pyrrolo[3,2-b]pyridin-2-yl]pyridin-2-yl}propanamide] | 14.6 | 7.53
O=C(Cc1ccc(F)cc1)Nc1cc(-c2[nH]c3ccc(F)nc3c2-c2ccccn2)ccn1 [Example 4, 2-(4-fluorophenyl)-N-{4-[5-fluoro-3-(pyridin-2-yl)-1H-pyrrolo[3,2-b]pyridin-2-yl]pyridin-2-yl}acetamide] | 2.33 | 0.739
CC(C(=O)Nc1cc(-c2[nH]c3cccnc3c2-c2ccccn2)ccn1)c1ccc(F)cc1 (single isomer, unassigned; (+)) [Example 7, (+)-2-(4-fluorophenyl)-N-{4-[3-(pyridin-2-yl)-1H-pyrrolo[3,2-b]pyridin-2-yl]pyridin-2-yl}propanamide] | 2.1 | 0.949
Cc1cc2[nH]c(-c3ccnc(NC(=O)C(C)c4ccc(F)cc4)c3)c(-c3ccccn3)c2nc1F (racemic) [Example 28, N-{4-[5-fluoro-6-methyl-3-(pyridin-2-yl)-1H-pyrrolo[3,2-b]pyridin-2-yl]pyridin-2-yl}-2-(4-fluorophenyl)propanamide] | 11.3 | 4.61
O=C(Cc1ccc(Cl)cc1)Nc1cc(-c2[nH]c3cccnc3c2-c2ccccn2)ccn1 [Example 42, 2-(4-chlorophenyl)-N-{4-[3-(pyridin-2-yl)-1H-pyrrolo[3,2-b]pyridin-2-yl]pyridin-2-yl}acetamide] | 3.33 | 1.23
COc1ccnc2c(-c3ccccn3)c(-c3ccnc(NC(=O)Cc4ccc(F)cc4)c3)[nH]c12 [Example 31, 2-(4-fluorophenyl)-N-{4-[7-methoxy-3-(pyridin-2-yl)-1H-pyrrolo[3,2-b]pyridin-2-yl]pyridin-2-yl}acetamide] | 4.4 | 2.5
